# From publication PMC5378303 (Nature, 2017)
# Molecular target: T1, phi3T AimR receptor (Bacillus phage phi3T, UniProt P0DOE3)
# T1 sequence (P0DOE3 1-378): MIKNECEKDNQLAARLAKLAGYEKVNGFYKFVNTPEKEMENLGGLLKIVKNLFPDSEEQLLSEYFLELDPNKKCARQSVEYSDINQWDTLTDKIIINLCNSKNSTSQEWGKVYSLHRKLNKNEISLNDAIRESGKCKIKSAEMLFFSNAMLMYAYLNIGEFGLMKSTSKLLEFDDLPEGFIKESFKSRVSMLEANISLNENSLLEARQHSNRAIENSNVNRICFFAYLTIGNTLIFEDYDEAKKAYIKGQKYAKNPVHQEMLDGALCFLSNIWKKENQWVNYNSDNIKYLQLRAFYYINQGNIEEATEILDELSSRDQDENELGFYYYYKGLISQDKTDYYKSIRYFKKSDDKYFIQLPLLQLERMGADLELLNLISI
# Test: Microscale thermophoresis
# Assay type: binding
# Conditions: label-free MST, 200 nM AimR, peptide 9-4000 nM, pH 8.0, 23 °C, 3 runs
substance,measurement,value
GMPRGA,binding to phi3T AimR (in words),did not show specific binding to the phi3T AimR receptor
